Reference: BigSolDB 2.1

CCCCCCCCCCCCCCCc1cccc(O)c1
Settings	solubility (mole fraction)
in acetone, 289.08 K	0.253
in acetone, 291.32 K	0.272
in acetone, 293.55 K	0.309
in acetone, 295.54 K	0.33
in acetone, 297.54 K	0.351
in acetone, 299.33 K	0.373
in ethanol, 291.47 K	0.158
in ethanol, 293.83 K	0.181
in ethanol, 295.56 K	0.199
in ethanol, 297.55 K	0.228
in ethanol, 299.15 K	0.252
in ethanol, 301.28 K	0.278
in ethyl acetate, 290.83 K	0.236
in ethyl acetate, 295.86 K	0.299
in ethyl acetate, 297.3 K	0.323
in ethyl acetate, 300.12 K	0.352
in ethyl acetate, 302.14 K	0.38
in n-butanol, 293.55 K	0.239
in n-butanol, 295.36 K	0.263
in n-butanol, 297.33 K	0.282
in n-butanol, 299.16 K	0.302
in n-butanol, 300.86 K	0.321
in n-butanol, 302.94 K	0.349
in tetrachloromethane, 288.46 K	0.0912
in tetrachloromethane, 290.45 K	0.101
in tetrachloromethane, 292.51 K	0.124
in tetrachloromethane, 294.42 K	0.15
in tetrachloromethane, 296.55 K	0.18
in tetrachloromethane, 298.36 K	0.21
in tetrachloromethane, 300.24 K	0.242
in toluene, 295.25 K	0.122
in toluene, 297.45 K	0.14
in toluene, 299.2 K	0.16
in toluene, 301.23 K	0.186
in toluene, 303.66 K	0.228
in toluene, 305.47 K	0.262
